In patent publication US20160184274A1, “Methods for inhibiting mesenchymal phenotype after epithelial-to-mesenchymal transition” (Fibrostatin, S.L., priority 2014, published 2016):
“Also recorded” adds a separate entry of the source.

Experiments:
[1] = tested on: mesenchymal A549 spheroids; assay: Intracellular doxorubicin accumulation and viability in spheroids; format: cell-based, Human; conditions: FIG. 9
Method: FIG. 9. T12 enhances intracellular accumulation of doxorubicin in A549 mesenchymal spheroids. A549 spheroids were subjected to EMT induction with TGF-β and TNF-α during 4 days, and treated with T12 (10 μM) or maintained untreated (Placebo) for the last 2 days. Three hours before spheroid analysis doxorubicin (1 μM) was added. Spheroids were fixed and analyzed by immunofluorescence confocal microscopy with anti-α1α2(IV) antibodies for collagen IV network visualization (grey). Doxorubicin was detected by its own auto-fluorescence. […] Three-dimensional spheroid cultures of A549 cells were obtained using a hanging droplet method (Kelm et al., 2003. Biotechnol. Bioeng. 83: 173-180.; Kumar et al., 2013. PLoS One. 8: e68597). Briefly, cells were grown to approximately 80% confluence on adherent tissue-culture flasks. Then cells were trypsinized, dispersed in DMEM/10% FBS, and counted using an automated cell counter (MOXI® Z, Orflo). The cell suspension was diluted to a 10^6 cells/mL-concentration, and 25 μl of the cell suspension were pipetted onto the underside of a sterile 10-cm tissue culture plate lid. Each lid was loaded with approximately 55 droplets. After loading, the lid was placed onto a tissue culture plate containing 6 mL of sterile PBS (phosphate-buffered saline) and incubated for 48 hours to facilitate spheroid formation. […]

[2] = tested on: mesenchymal A549 spheroids; assay: Spheroid viability / cell death by LDH activity in media; format: cell-based, Human; conditions: T12 10 μM for the last 2 days of 4-day EMT induction; FIG. 7B
Method: FIG. 7. T12 disrupts collagen IV network and reduces A549 mesenchymal spheroids viability. A549 spheroids were subjected to EMT induction with TGF-β and TNF-α during 4 days, and treated with T12 (10 μM) or maintained untreated (Cont) for the last 2 days. In A, spheroids were analyzed by immunofluorescence confocal microscopy with anti-α1α2 (IV) antibodies (COL4, white) and DAPI to visualize the cell nuclei (grey). In B, the culture media of the spheroids in A were used for assessing cell death by measuring LDH activity. […] Represented are Means (±SEM).
For some purposes, culture media were cleared by centrifugation (500×g, 10 min, room temperature) and LDH activity in supernatants determined with Lactate Dehydrogenase Activity Assay Kit (Sigma-Aldrich).
Three-dimensional spheroid cultures of A549 cells were obtained using a hanging droplet method (Kelm et al., 2003. Biotechnol. Bioeng. 83: 173-180.; Kumar et al., 2013. PLoS One. 8: e68597). Briefly, cells were grown to approximately 80% confluence on adherent tissue-culture flasks. Then cells were trypsinized, dispersed in DMEM/10% FBS, and counted using an automated cell counter (MOXI® Z, Orflo). The cell suspension was diluted to a 10^6 cells/mL-concentration, and 25 μl of the cell suspension were pipetted onto the underside of a sterile 10-cm tissue culture plate lid. Each lid was loaded with approximately 55 droplets. […]

[3] = tested on: RAW264.7; assay: Collagen IV expression in RAW264.7; format: cell-based; conditions: data not shown

COc1ccc(-c2ccc(-c3cccc(C)c3)c(C)c2)c(CCC(=O)O)c1 [T12, 3-[4″-methoxy-3,2′-dimethyl-(1,1′;4′,1″)terphenyl-2″-yl] propionic acid]
intracellular accumulation of doxorubicin (nuclei containing doxorubicin) ([1]; T12 10 μM last 2 days, doxorubicin 1 μM 3 h before analysis): accumulating doxorubicin inside the cells; also recorded: more abundant in spheroids treated with doxorubicin and T12 than in spheroids treated only with doxorubicin | viability of spheroids with doxorubicin ([1]; T12 10 μM plus doxorubicin 1 μM): sharply reduced the viability | cell viability (LDH activity in culture media) [2]: reduced cell viability | collagen IV expression [3]: significantly reduced collagen IV expression
